Measurements as given in paper PMC10350922, “Allosteric Inhibitors of Macrophage Migration Inhibitory Factor (MIF) Interfere with Apoptosis-Inducing Factor (AIF) Co-Localization to Prevent Parthanatos” (Journal of Medicinal Chemistry, 2023).

Test system: HeLa cells
Test: Cell viability (MTS) assay, MNNG-induced parthanatos
Type: cell-based
Conditions: MTS assay

| Compound | Protective effect in MNNG-induced parthanatos |
| --- | --- |
| COc1ccc(N2Cc3ccc(O)cc3OC2=O)cc1OC [ZP143, reference compound] | no protective effect |

Target: MIF
Test: not given
Parameters: method as in PMID 32940040
Conditions: competitive MIF tautomerase inhibitor; cited from earlier work

| Compound | Ki [nM] |
| --- | --- |
| COc1ccc(N2Cc3ccc(O)cc3OC2=O)cc1OC [ZP143, reference compound] | 100 ± 10 |

Target: T1, MIF (Homo sapiens, UniProt P14174)
T1 construct: made in house; host or cells: Escherichia coli BL21, pET-20b(p) plasmid
T1 sequence (P14174 2-115 limits assumed): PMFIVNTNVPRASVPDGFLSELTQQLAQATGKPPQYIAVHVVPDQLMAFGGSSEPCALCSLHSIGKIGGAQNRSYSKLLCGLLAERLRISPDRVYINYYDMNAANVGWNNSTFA
Test: MIF tautomerase activity assay (PP substrate, UV absorbance at 300 nm)
Type: biochemical
Conditions: 10 μM inhibitor; activity without inhibitor set to 100%; mean, n = 3
Protocol: Recombinant human MIF with a C-terminal His-tag was expressed and purified following methods published previously.[47] The inhibitory potency for MIF tautomerase activity of the 1-phenyl-1H-1,2,3-triazole-4-carboxamides was measured after pre-incubation with MIF. The MIF-catalyzed PP tautomerization was measured by the corresponding change in UV absorbance over the first 3 min of the reaction.[48] Initial screening of the inhibitory potency was performed at 10 μM inhibitor concentration.
Inhibition of the tautomerase activity and kinetics of MIF was measured using […] (PP) as a substrate. A stock solution was prepared by mixing PP in 50 mM ammonium acetate buffer and adjusted to pH 6.0 using 1.0 M NaOH to provide a concentration of 20 mM. This solution was incubated overnight at 37 °C to allow equilibration of the keto and enol forms and then stored at 4 °C. For the assay, MIF stock solution (10 μL, 70 μM) was diluted in 20 mL of the boric acid buffer (435 mM H3BO3, 1 mM EDTA, pH 6.2) to provide 35 nM solution. The enzyme activity was determined by premixing 192 μL of the MIF dilution with 8 μL of the inhibitors dissolved in DMSO (1 mM). This mixture was preincubated for 10 min. Next, 50 μL of the mixture was mixed with 50 μL of 2 mM PP solution in ammonium acetate buffer. Subsequently, MIF tautomerase activity was monitored by the formation of the borate–enol complex, which was measured by the increase in UV absorbance at 300 nm. The increase in UV absorbance was measured over the first 10 min of incubation using a BioTek Synergy H1 Hybrid plate reader. MIF tautomerase activity in the presence of blank DMSO was set to 100% enzyme activity. […] Data from the first 3 min were used to calculate the initial velocities. All of the graphs were prepared in GraphPad Prism.
For the IC50 measurements, 1 mM solutions of the compounds were double-diluted 10 times in DMSO and subsequently, the MIF tautomerase activity was determined by premixing 190 μL of the MIF dilution with 10 μL of the inhibitors. This mixture was preincubated for 10 min and mixed with the 2 mM PP solution as described above.

| remaining activity at 10 µM [%] | Compound | Activity of MIF (%) |
| --- | --- | --- |
| 38 | O=C(NCc1ccco1)c1cn(-c2ccc(Cl)c(Cl)c2)nn1 [Compound 6l, 1-(3,4-Dichlorophenyl)-N-(furan-2-ylmethyl)-1H-1,2,3-triazole-4-carboxamide] |  |
| 80 | COc1ccc(CNC(=O)c2cn(-c3ccc(Cl)c(Cl)c3)nn2)cc1OC [Compound 6m, 1-(3,4-Dichlorophenyl)-N-(3,4-dimethoxybenzyl)-1H-1,2,3-triazole-4-carboxamide] |  |
| 50 | CCc1ccc(-n2cc(C(=O)Nc3cccc(F)c3)nn2)cc1 [Compound 6f, 1-(4-Ethylphenyl)-N-(3-fluorophenyl)-1H-1,2,3-triazole-4-carboxamide] |  |
| 66 | O=C(NCCc1ccccc1Cl)c1cn(-c2cccc(Cl)c2)nn1 [Compound 6t, N-(2-Chlorophenethyl)-1-(3-chlorophenyl)-1H-1,2,3-triazole-4-carboxamide] |  |
| 54 | Cc1ccc(-n2cc(C(=O)Nc3ccc(F)cc3)nn2)cc1C [Compound 6g, 1-(3,4-Dimethylphenyl)-N-(4-fluorophenyl)-1H-1,2,3-triazole-4-carboxamide] |  |
| 45 | CCc1ccc(NC(=O)c2cn(-c3ccc(F)cc3[N+](=O)[O-])nn2)cc1 [Compound 6p, N-(4-Ethylphenyl)-1-(4-fluoro-2-nitrophenyl)-1H-1,2,3-triazole-4-carboxamide] |  |
| 50 | O=C(NC1CCCC1)c1cn(-c2ccc(Cl)c(Cl)c2)nn1 [Compound 6k, N-Cyclopentyl-1-(3,4-dichlorophenyl)-1H-1,2,3-triazole-4-carboxamide] |  |
| 21 | Cc1ccc(-n2cc(C(=O)NCc3ccccc3)nn2)cc1C [Compound 6v, N-Benzyl-1-(3,4-dimethylphenyl)-1H-1,2,3-triazole-4-carboxamide] |  |
| 37 | O=C(Nc1ccc(Br)cc1)c1cn(-c2ccccc2)nn1 [Compound 6c, N-(4-Bromophenyl)-1-phenyl-1H-1,2,3-triazole-4-carboxamide] |  |
| 84 | O=C(Nc1ccccc1)c1cn(-c2ccccc2)nn1 [Compound 6a, N,1-Diphenyl-1H-1,2,3-triazole-4-carboxamide] |  |
| 57 | O=C(NCc1ccc(Cl)cc1)c1cn(-c2ccc(Cl)cc2)nn1 [Compound 6r, N-(4-Chlorobenzyl)-1-4-chlorophenyl-1H-1,2,3-triazole-4-carboxamide] |  |
| 87 | COc1ccccc1-n1cc(C(=O)Nc2ccc(Cl)cc2)nn1 [Compound 6d, N-(4-Chlorophenyl)-1-(2-methoxyphenyl)-1H-1,2,3-triazole-4-carboxamide] |  |
| 60 | COC(=O)CC1CC(c2ccc(O)cc2)=NO1 (centres unmarked) [ISO-1, reference compound] |  |
| 40 | O=C(NCCc1ccccc1)c1cn(-c2cccc(Cl)c2)nn1 [Compound 6s, 1-(3-Chlorophenyl)-N-phenethyl-1H-1,2,3-triazole-4-carboxamide] |  |
| 58 | O=C(NCc1ccc(Cl)cc1)c1cn(-c2ccc(F)cc2)nn1 [Compound 6q, N-(4-Chlorobenzyl)-1-(4-fluorophenyl)-1H-1,2,3-triazole-4-carboxamide] |  |
| 14 | O=C(Nc1ccccc1)c1ccc(-n2cc(C(=O)NCc3ccccc3)nn2)cc1 [Compound 6x, N-Benzyl-1-(4-(phenylcarbomyl)phenyl)-1H-1,2,3-triazole-4-carboxamide] |  |
| 39 | CC(NC(=O)c1cn(-c2ccc(C(=O)NC3CC3)cc2)nn1)c1ccccc1 (centres unmarked) [Compound 6w, 1-(4-(Cyclopropylcarbamoyl)phenyl)-N-(1-phenylethyl)-1H-1,2,3-triazole-4-carboxamide] |  |
| 66 | O=C(NCCc1ccccc1)c1cn(-c2cccc3ncccc23)nn1 [Compound 6u, N-Phenethyl-1-(quinolin-5-yl)-1H-1,2,3-triazole-4-carboxamide] |  |
| 58 | COC(=O)C(Cc1ccccc1)NC(=O)c1cn(-c2ccc(Cl)c(Cl)c2)nn1 (centres unmarked) [Compound 6j, Methyl-(1-(3,4-dichlorophenyl)-1H-1,2,3-triazole-4-carbonyl)phenylalaninate] |  |
| 90 | O=C(CCc1ccco1)NCc1cn(-c2ccc(Cl)c(Cl)c2)nn1 [Compound 6i] |  |
| 65 | O=C(NCCc1ccccc1Cl)c1cn(-c2ccc(Cl)c(Cl)c2)nn1 [Compound 6h, N-(2-Chlorophenethyl)-1-(3,4-dichlorophenyl)-1H-1,2,3-triazole-4-carboxamide] |  |
|  | N-(4-Bromophenyl)-1-(4-cyanophenyl)-1H-1,2,3-triazole-4-carboxamide [Compound 6o] | 44 |
| 65 | O=C(Nc1ccc(F)cc1)c1cn(-c2ccccc2)nn1 [Compound 6b, N-(4-Fluorophenyl)-1-phenyl-1H-1,2,3-triazole-4-carboxamide] |  |
| 79 | COc1ccccc1-n1cc(C(=O)NC(C)c2ccc(Br)cc2)nn1 (centres unmarked) [Compound 6e, N-(1-(4-Bromophenyl)ethyl)-1-(2-methoxyphenyl)-1H-1,2,3-triazole-4-carboxamide] |  |
| 47 | N#Cc1cc(Cl)ccc1-n1cc(C(=O)Nc2ccc(F)cc2)nn1 [Compound 6n, 1-(4-Chloro-2-cyanophenyl)-N-(4-fluorophenyl)-1H-1,2,3-triazole-4-carboxamide] |  |

Same assay, conditions: PP as substrate, 10 min preincubation; read-out: IC50, inhibition of MIF tautomerase activity

| IC50 [µM] | Compound |
| --- | --- |
| 6.5 ± 0.4 | Cc1ccc(-n2cc(C(=O)NCc3ccccc3)nn2)cc1C [Compound 6v, N-Benzyl-1-(3,4-dimethylphenyl)-1H-1,2,3-triazole-4-carboxamide] |
| 2.5 ± 0.1 | O=C(Nc1ccccc1)c1ccc(-n2cc(C(=O)NCc3ccccc3)nn2)cc1 [Compound 6x, N-Benzyl-1-(4-(phenylcarbomyl)phenyl)-1H-1,2,3-triazole-4-carboxamide] |
